Results reported in PubChem BioAssay (NCI).
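The compound was tested at five concentrations on cells cultured in 96-well plates, with a 48-hour exposure period. The concentration for 50% growth inhibition is given as GI50. TGI: concentration producing complete growth inhibition.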

Experiments:
Test in all cases: growth of human tumour cells (NCI), 48 h
UACC-62 melanoma = system: UACC-62 melanoma
ACHN renal = system: ACHN renal
HCC-2998 colon = system: HCC-2998 colon
SF-539 CNS = system: SF-539 CNS
M14 melanoma = system: M14 melanoma
SNB-19 CNS = system: SNB-19 CNS
IGROV1 ovarian = system: IGROV1 ovarian
SK-MEL-2 melanoma = system: SK-MEL-2 melanoma
RPMI-8226 leukemia = system: RPMI-8226 leukemia
HOP-92 NSCLC = system: HOP-92 NSCLC
T-47D breast = system: T-47D breast
SNB-75 CNS = system: SNB-75 CNS
A498 renal = system: A498 renal
SK-MEL-5 melanoma = system: SK-MEL-5 melanoma
SK-MEL-28 melanoma = system: SK-MEL-28 melanoma
DU-145 prostate = system: DU-145 prostate
OVCAR-4 ovarian = system: OVCAR-4 ovarian
HCT-15 colon = system: HCT-15 colon
NCI/ADR-RES ovarian = system: NCI/ADR-RES ovarian
OVCAR-5 ovarian = system: OVCAR-5 ovarian
HCT-116 colon = system: HCT-116 colon
SK-OV-3 ovarian = system: SK-OV-3 ovarian
NCI-H23 lung = system: NCI-H23 lung
CCRF-CEM leukemia = system: CCRF-CEM leukemia
NCI-H522 lung = system: NCI-H522 lung
786-0 renal = system: 786-0 renal
HL-60(TB) leukemia = system: HL-60(TB) leukemia
RXF 393 renal = system: RXF 393 renal
NCI-H460 lung = system: NCI-H460 lung
SR leukemia = system: SR leukemia
TK-10 renal = system: TK-10 renal
BT-549 breast = system: BT-549 breast
MDA-MB-231 breast = system: MDA-MB-231 breast
UO-31 renal = system: UO-31 renal
MDA-MB-468 breast = system: MDA-MB-468 breast
COLO 205 colon = system: COLO 205 colon
KM12 colon = system: KM12 colon
HOP-62 NSCLC = system: HOP-62 NSCLC
SN12C renal = system: SN12C renal
HT29 colon = system: HT29 colon
EKVX NSCLC = system: EKVX NSCLC
UACC-257 melanoma = system: UACC-257 melanoma
LOX IMVI melanoma = system: LOX IMVI melanoma
CAKI-1 renal = system: CAKI-1 renal
PC-3 prostate = system: PC-3 prostate
U251 CNS = system: U251 CNS
SF-268 CNS = system: SF-268 CNS
OVCAR-3 ovarian = system: OVCAR-3 ovarian
NCI-H226 lung = system: NCI-H226 lung
K-562 leukemia = system: K-562 leukemia
SW-620 colon = system: SW-620 colon
A549 NSCLC = system: A549 NSCLC
HS 578T breast = system: HS 578T breast
MDA-MB-435 = system: MDA-MB-435
MOLT-4 leukemia = system: MOLT-4 leukemia
SF-295 CNS = system: SF-295 CNS
OVCAR-8 ovarian = system: OVCAR-8 ovarian
MALME-3M melanoma = system: MALME-3M melanoma
MCF7 breast = system: MCF7 breast

Q: Which results are given for `Cc1ccc(-c2cc(C(=O)N=Nc3c(O)[nH]c4ccc(F)cc34)c3ccccc3n2)cc1`?
A: GI50 (UACC-62 melanoma): 9.81 µM; TGI (UACC-62 melanoma): 22.7 µM; GI50 (ACHN renal): 12.7 µM; TGI (ACHN renal): 26 µM; GI50 (HCC-2998 colon): 15.1 µM; TGI (HCC-2998 colon): 32.7 µM; GI50 (SF-539 CNS): 2.64 µM; TGI (SF-539 CNS): 8.66 µM; GI50 (M14 melanoma): 11.6 µM; TGI (M14 melanoma): 28 µM; GI50 (SNB-19 CNS): 17.3 µM; TGI (SNB-19 CNS): 42.3 µM; GI50 (IGROV1 ovarian): 12.5 µM; TGI (IGROV1 ovarian): 28.5 µM; GI50 (SK-MEL-2 melanoma): 17 µM; TGI (SK-MEL-2 melanoma): 35 µM; GI50 (RPMI-8226 leukemia): 10.6 µM; TGI (RPMI-8226 leukemia): > 100 µM; GI50 (HOP-92 NSCLC): 11.5 µM; TGI (HOP-92 NSCLC): 30.8 µM; GI50 (T-47D breast): 11 µM; TGI (T-47D breast): 54.2 µM; GI50 (SNB-75 CNS): 10.5 µM; TGI (SNB-75 CNS): 33.3 µM; GI50 (A498 renal): 19 µM; TGI (A498 renal): 34.1 µM; GI50 (SK-MEL-5 melanoma): 15.2 µM; TGI (SK-MEL-5 melanoma): 30.1 µM; GI50 (SK-MEL-28 melanoma): 10.2 µM; TGI (SK-MEL-28 melanoma): 22.3 µM; GI50 (DU-145 prostate): 15.6 µM; TGI (DU-145 prostate): 52.1 µM; GI50 (OVCAR-4 ovarian): 5.68 µM; TGI (OVCAR-4 ovarian): 26.6 µM; GI50 (HCT-15 colon): 2.39 µM; TGI (HCT-15 colon): 15.3 µM; GI50 (NCI/ADR-RES ovarian): 3.53 µM; TGI (NCI/ADR-RES ovarian): 27.5 µM; GI50 (OVCAR-5 ovarian): 10.2 µM; TGI (OVCAR-5 ovarian): 23.9 µM; GI50 (HCT-116 colon): 3.36 µM; TGI (HCT-116 colon): 13.8 µM; GI50 (SK-OV-3 ovarian): 18.9 µM; TGI (SK-OV-3 ovarian): 38.5 µM; GI50 (NCI-H23 lung): 4.2 µM; TGI (NCI-H23 lung): 18.4 µM; GI50 (CCRF-CEM leukemia): 2.11 µM; TGI (CCRF-CEM leukemia): > 100 µM; GI50 (NCI-H522 lung): 11.8 µM; TGI (NCI-H522 lung): 27.5 µM; GI50 (786-0 renal): 16.6 µM; TGI (786-0 renal): 39.1 µM; GI50 (HL-60(TB) leukemia): 15.4 µM; TGI (HL-60(TB) leukemia): 54 µM; GI50 (RXF 393 renal): 7.77 µM; TGI (RXF 393 renal): 22.5 µM; GI50 (NCI-H460 lung): 3.96 µM; TGI (NCI-H460 lung): 19.8 µM; GI50 (SR leukemia): 8.17 µM; TGI (SR leukemia): > 100 µM; GI50 (TK-10 renal): 19.6 µM; TGI (TK-10 renal): 36.1 µM; GI50 (BT-549 breast): 10.7 µM; TGI (BT-549 breast): 25.7 µM; GI50 (MDA-MB-231 breast): 3.42 µM; TGI (MDA-MB-231 breast): 13.6 µM; GI50 (UO-31 renal): 12.3 µM; TGI (UO-31 renal): 24.8 µM; GI50 (MDA-MB-468 breast): 9.09 µM; TGI (MDA-MB-468 breast): 23.6 µM; GI50 (COLO 205 colon): 15.7 µM; TGI (COLO 205 colon): 34.5 µM; GI50 (KM12 colon): 12.5 µM; TGI (KM12 colon): 56 µM; GI50 (HOP-62 NSCLC): 4.48 µM; TGI (HOP-62 NSCLC): 18.6 µM; GI50 (SN12C renal): 3.73 µM; TGI (SN12C renal): 16.5 µM; GI50 (HT29 colon): 5.23 µM; TGI (HT29 colon): 19.2 µM; GI50 (EKVX NSCLC): 10.8 µM; TGI (EKVX NSCLC): 27.4 µM; GI50 (UACC-257 melanoma): 16.7 µM; TGI (UACC-257 melanoma): 33.5 µM; GI50 (LOX IMVI melanoma): 4.1 µM; TGI (LOX IMVI melanoma): 16.6 µM; GI50 (CAKI-1 renal): 12.2 µM; TGI (CAKI-1 renal): 27.3 µM; GI50 (PC-3 prostate): 9.49 µM; TGI (PC-3 prostate): 91 µM; GI50 (U251 CNS): 4.09 µM; TGI (U251 CNS): 18.2 µM; GI50 (SF-268 CNS): 8.11 µM; TGI (SF-268 CNS): 49.5 µM; GI50 (OVCAR-3 ovarian): 8.75 µM; TGI (OVCAR-3 ovarian): 30.4 µM; GI50 (NCI-H226 lung): 17.4 µM; TGI (NCI-H226 lung): 37.2 µM; GI50 (K-562 leukemia): 4.27 µM; TGI (K-562 leukemia): > 100 µM; GI50 (SW-620 colon): 5.53 µM; TGI (SW-620 colon): 26 µM; GI50 (A549 NSCLC): 5.21 µM; TGI (A549 NSCLC): 22.6 µM; GI50 (HS 578T breast): 7.2 µM; TGI (HS 578T breast): 66.3 µM; GI50 (MDA-MB-435): 11.1 µM; TGI (MDA-MB-435): 27.8 µM; GI50 (MOLT-4 leukemia): 4.29 µM; TGI (MOLT-4 leukemia): > 100 µM; GI50 (SF-295 CNS): 11.4 µM; TGI (SF-295 CNS): 26.1 µM; GI50 (OVCAR-8 ovarian): 4.72 µM; TGI (OVCAR-8 ovarian): 33.2 µM; GI50 (MALME-3M melanoma): 8.77 µM; TGI (MALME-3M melanoma): 21.6 µM; GI50 (MCF7 breast): 4.6 µM; TGI (MCF7 breast): 23 µM
